From patent US20260151414A1, “COMPOSITIONS AND THERAPEUTIC METHODS FOR TREATING CHRONIC SEQUALAE FOLLOWING VIRAL INFECTIONS” (priority 2023, published 2026)

Legend:
[1] = system: PASC (Long Covid); assay: Clinical example: inventor's self-treatment of Long Covid (PASC) symptoms; type: in vivo, human; conditions: for relief of constant headache: person, symptoms returning from mid-December 2020 after Covid, self-medication
[2] = molecular target: ACE2 receptor (Homo sapiens, UniProt Q9BYF1); conditions: active site of ACE2 receptor; cited from earlier work
ACE2 receptor, sequence (Q9BYF1 18-805): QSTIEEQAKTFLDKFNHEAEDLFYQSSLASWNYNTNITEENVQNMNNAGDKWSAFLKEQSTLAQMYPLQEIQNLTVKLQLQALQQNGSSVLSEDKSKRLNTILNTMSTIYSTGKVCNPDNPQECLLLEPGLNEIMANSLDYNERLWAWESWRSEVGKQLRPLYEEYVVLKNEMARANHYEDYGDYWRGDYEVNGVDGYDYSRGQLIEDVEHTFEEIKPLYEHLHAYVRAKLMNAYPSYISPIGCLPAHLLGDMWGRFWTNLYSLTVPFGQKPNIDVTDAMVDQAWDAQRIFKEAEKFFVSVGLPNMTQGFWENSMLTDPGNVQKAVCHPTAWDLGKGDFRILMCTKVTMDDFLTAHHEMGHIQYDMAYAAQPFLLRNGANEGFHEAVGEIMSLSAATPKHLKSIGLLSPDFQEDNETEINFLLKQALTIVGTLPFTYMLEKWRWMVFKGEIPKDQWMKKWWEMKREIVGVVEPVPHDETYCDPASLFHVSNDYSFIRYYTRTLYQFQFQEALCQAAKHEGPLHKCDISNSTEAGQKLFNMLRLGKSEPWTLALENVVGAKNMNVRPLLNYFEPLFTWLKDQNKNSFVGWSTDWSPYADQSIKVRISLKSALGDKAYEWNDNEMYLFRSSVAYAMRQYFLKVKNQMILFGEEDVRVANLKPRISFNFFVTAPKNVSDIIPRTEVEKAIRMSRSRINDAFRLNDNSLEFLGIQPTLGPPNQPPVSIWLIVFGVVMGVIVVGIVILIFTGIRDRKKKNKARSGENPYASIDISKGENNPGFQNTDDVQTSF

[3] = system: Covid-19; conditions: cited from earlier work
[4] = system: Covid-19; conditions: cited from earlier work; remark: listed apart in the source

**Q.** Which “relief of constant headache” value [1] does the source give for COc1ccc2cc([C@H](C)C(=O)O)ccc2c1 [naproxen] here?
**A.** would not go away

**Q.** With CC(=O)Oc1ccccc1C(=O)O [aspirin] as the molecule, how does the “relief of constant headache” value [1] read?
**A.** would not go away

**Q.** For O=C(O)C=Cc1ccccc1 [Cinnamic Acid], which “blocking of Covid-19 via ACE2 receptor” value [2] is on record?
**A.** block Covid-19 via the active site of ACE2 receptor

**Q.** Which “antiviral properties for Covid-19” value [3] does the source give for O=C(O)c1ccccc1 [Benzioc Acid] here?
**A.** strong antiviral properties

**Q.** With CC(C)Cc1ccc(C(C)C(=O)O)cc1 (stereo not shown) [ibuprofen] as the molecule, how does the “relief of constant headache” value [1] read?
**A.** would not go away

**Q.** Which “inhibitory effect against Covid-19” value [4] does the source give for C=C1CC[C@@H]2[C@](C)(CO)[C@H](O)CC[C@@]2(C)[C@@H]1C/C=C1/C(=O)OC[C@H]1O [andrographolide] here?
**A.** potent inhibitory effect

**Q.** For O=c1c(O)c(-c2ccc(O)c(O)c2)oc2cc(O)cc(O)c12 [Quercetin], which energy and headaches ([1]; Black Seed Oil and Quercetin (with Zinc) used together, within a few days of using them) is on record?
**A.** an increase in energy and I was having fewer headaches
